Each structure is given as a SMILES string. Bounds are passed on as bounds.

In this assay the target is HIV-1 protease (Human immunodeficiency virus type 1 group M subtype B, UniProt P04585). Briefly: Inhibition of microbial expressed viral protease (HIV-1 protease), method of Toth and Marshall. The class given is biochemical. As to the method: Biological Assay for Inhibition of Microbial Expressed Viral Protease
The inhibition constants against HIV-1 protease were measured using the method described by M. V. Toth and G. R. Marshall, Int. J. Peptide protein Res., 1990, 544. The method described M. W. Pennington et al., Peptides 1990, Gimet, E. and D. Andrew, Eds., Escom; Leiden, Netherlands (1990) may also be used. The potency is measured as IC50in μM. The person of skill would accept these tests as predictive of the compounds' utility in vivo to treat HIV infected patients.
As usually defined, the IC50 is the concentration that gives 50% inhibition. As for `COc1cccc(C)c1OCC(=O)N[C@@H](Cc1ccccc1)[C@H](O)CCc1ccccc1C(=O)NC(C)(C)C` [Example 001213], the IC50 is below 100 nM.

On to `CC(C)CC(O)C(=O)NC(Cc1ccccc1)C(O)CCc1ccccc1C(=O)NC(C)(C)C` (centres unmarked) [Example 001219], for which the IC50 was 100 to 10000 nM.

For `CC(C)(C)NC(=O)c1ccccc1CC[C@@H](O)[C@H](Cc1ccccc1)NC(=O)c1cc(N)ccc1Cl` [Example 000971], the concentration for half-maximal inhibition (IC50) fell in the range of 100 to 10000 nM.

With `Cc1cccc(C)c1OCC(=O)N[C@@H](Cc1ccccc1)[C@H](O)CCc1cccc(F)c1C(=O)NC(C)(C)C` [Example 001239], the half-inhibitory concentration (IC50) is below 100 nM.

In turn, `CC(C)(C)NC(=O)c1ccccc1CC[C@@H](O)[C@H](Cc1ccccc1)NC(=O)N1c2ccccc2Sc2ccccc21` [Example 00241] yielded an IC50 above 10000 nM.

`Cc1cccc(OCC(=O)N[C@@H](Cc2ccccc2)[C@H](O)CCc2ccccc2C(=O)NC(C)(C)C)c1` [Example 001185]: the IC50 is 100 to 10000 nM.

`CC(C)(C)NC(=O)c1ccccc1CC[C@@H](O)[C@H](Cc1ccccc1)NC(=S)Oc1ccc(F)cc1` [Example 001017] showed an IC50 above 10000 nM.

For `CC(C)(C)NC(=O)c1ccccc1CC[C@@H](O)[C@H](Cc1ccccc1)NS(=O)(=O)c1cccs1` [Example 000880], the IC50 is 100 to 10000 nM.

`Cc1ccc(C)c(OCC(=O)N[C@@H](Cc2ccccc2)[C@H](O)CCc2ccccc2C(=O)NC(C)(C)C)c1C` [Example 001201] registered an IC50 below 100 nM.

For `CC(C)(C)NC(=O)c1ccccc1CC[C@@H](O)[C@H](Cc1ccccc1)NC(=O)N(c1ccccc1)c1ccccc1` [Example 001006], the IC50 lay within 100 to 10000 nM.

The molecule `CC(C)(C)NC(=O)c1ccccc1CC[C@@H](O)[C@H](Cc1ccccc1)NC(=O)c1ccc(Cl)cc1Cl` [Example 000902] returned a half-maximal inhibitory concentration (IC50) of 100 to 10000 nM.

In turn, `Cc1cc(Br)cc(Cl)c1OCC(=O)N[C@@H](Cc1ccccc1)[C@H](O)CCc1ccccc1C(=O)NC(C)(C)C` [Example 001216] had an IC50 of 100 to 10000 nM.

Turning to `CC(C)(C)NC(=O)c1ccccc1CC[C@@H](O)[C@H](Cc1ccccc1)NC(=O)COc1ccccc1` [Example 000244], the IC50 fell in the range of 100 to 10000 nM.

The molecule `CC(C)(C)NC(=O)c1ccccc1CC[C@@H](O)[C@H](Cc1ccccc1)NC(=O)c1ccccc1C(=O)c1ccccc1` [Example 00968] returned an IC50 of 100 to 10000 nM.

Take `COc1ccc(C(=O)c2ccccc2C(=O)N[C@@H](Cc2ccccc2)[C@H](O)CCc2ccccc2C(=O)NC(C)(C)C)c(O)c1` [Example 001034]: the IC50 fell in the range of 100 to 10000 nM.

`CC(C)(C)NC(=O)c1ccccc1CC[C@@H](O)[C@H](Cc1ccccc1)NC(=O)c1cc(Cl)cc(Cl)c1` [Example 000967]: the half-maximal inhibitory concentration (IC50) lay in the range of 100 to 10000 nM.

In the case of `COc1cccc(OC)c1C(=O)N[C@@H](Cc1ccccc1)[C@H](O)CCc1ccccc1C(=O)NC(C)(C)C` [Example 000966], the IC50 is 100 to 10000 nM.

As for `COc1cccc(OC)c1OCC(=O)N[C@@H](Cc1ccccc1)[C@H](O)CCc1ccccc1C(=O)NC(C)(C)C` [Example 001210], the IC50 lay within 100 to 10000 nM.

For `CC(C)(C)NC(=O)c1ccccc1CC[C@@H](O)[C@H](Cc1ccccc1)NC(=O)c1ccc(Br)c(C(=O)O)c1` [Example 001035], the IC50 lay within 100 to 10000 nM.

Turning to `CC1CCCCC1OCC(=O)NC(Cc1ccccc1)C(O)CCc1ccccc1C(=O)NC(C)(C)C` (centres unmarked) [Example 001229], the IC50 fell in the range of 100 to 10000 nM.

With `CC(C)(C)NC(=O)c1ccccc1CC[C@@H](O)[C@H](Cc1ccccc1)NC(=O)c1ccccc1C(F)(F)F` [Example 001042], the IC50 was 100 to 10000 nM.

In turn, `Cc1ccccc1S(=O)(=O)NC(=O)N[C@@H](Cc1ccccc1)[C@H](O)CCc1ccccc1C(=O)NC(C)(C)C` [Example 001014] came in with an IC50 of 100 to 10000 nM.

The molecule `CC(C)(C)NC(=O)c1ccccc1CC[C@@H](O)[C@H](Cc1ccccc1)NC(=O)NC1CCCCC1` [Example 000882] gave a concentration for half-maximal inhibition (IC50) above 10000 nM.

Molecule `CC(C)(C)NC(=O)c1ccccc1CC[C@@H](O)[C@H](Cc1ccccc1)NC(=O)COc1c(Cl)cccc1Cl` [Example 001203] had an IC50 of 100 to 10000 nM.

For the molecule `CC(C)(C)NC(=O)c1ccccc1CC[C@@H](O)[C@H](Cc1ccccc1)NS(=O)(=O)c1ccc(C#N)cc1` [Example 000876], the IC50 lay within 100 to 10000 nM.

The molecule `CC(C)(C)NC(=O)c1ccccc1CC[C@@H](O)[C@H](Cc1ccccc1)NC(=O)Cc1ccccc1` [Example 00762] returned an IC50 of 100 to 10000 nM.

With `Cc1cc(C(=O)N[C@@H](Cc2ccccc2)[C@H](O)CCc2ccccc2C(=O)NC(C)(C)C)cc(C)c1OCC(=O)O` [Example 001278], the IC50 is 100 to 10000 nM.

Take `CC(C)CCNC(=O)c1ccccc1CC[C@@H](O)[C@H](Cc1ccccc1)NC(=O)OC(C)(C)C` [Example 000766]: the IC50 lay in the range of 100 to 10000 nM.

On to `COc1cccc(F)c1OCC(=O)N[C@@H](Cc1ccccc1)[C@H](O)CCc1ccccc1C(=O)NC(C)(C)C` [Example 001217], for which the IC50 was 100 to 10000 nM.

For the molecule `Cc1cc(CO)cc(C)c1OCC(=O)N[C@@H](Cc1ccccc1)[C@H](O)CCc1ccccc1C(=O)NC(C)(C)C` [Example 001267], the IC50 was below 100 nM.

The molecule `CC(C)(C)NC(=O)c1ccccc1CC[C@@H](O)[C@H](Cc1ccccc1)NC(=O)CSc1ccccc1` [Example 001190] had an IC50 of 100 to 10000 nM.

`CC(C)(C)NC(=O)c1ccccc1CC[C@@H](O)[C@H](Cc1ccccc1)NC(=O)CNc1ccccc1` [Example 001192] showed an IC50 of 100 to 10000 nM.

`CC(C)NC(=O)N[C@@H](Cc1ccccc1)[C@H](O)CCc1ccccc1C(=O)NC(C)(C)C` [Example 000892] gave a concentration for half-maximal inhibition (IC50) of 100 to 10000 nM.

As to `CC(C)(C)NC(=O)c1ccccc1CC[C@@H](O)[C@H](Cc1ccccc1)NC(=O)COc1c(Br)cc(F)cc1Br` [Example 001226], the IC50 was 100 to 10000 nM.

In turn, `CC(C)(C)NC(=O)c1ccccc1CC[C@@H](O)[C@H](Cc1ccccc1)NC(=O)COc1c(Cl)cc(Cl)cc1Cl` [Example 001224] displayed an IC50 below 100 nM.

`CC(C)(C)NC(=O)c1ccccc1CC[C@@H](O)[C@H](Cc1ccccc1)NC(=O)c1ccc(C(=O)c2ccccc2)cc1` [Example 001047] showed an IC50 of 100 to 10000 nM.

`Cc1c(N)cccc1C(=O)N[C@@H](Cc1ccccc1)[C@H](O)CCc1ccccc1C(=O)NC(C)(C)C` [Example 000945] displayed an IC50 above 10000 nM.

Regarding `CC(C)(C)NC(=O)c1ccccc1CC[C@@H](O)[C@H](Cc1ccccc1)NC(=O)Nc1ccc([N+](=O)[O-])cc1` [Example 000889], the IC50 is 100 to 10000 nM.

`CC(C)(C)NC(=O)c1ccccc1CC[C@@H](O)[C@H](Cc1ccccc1)NC(=O)CCC(=O)c1ccc(F)cc1` [Example 000973]: the IC50 was below 100 nM.

`C=CCc1cccc(C)c1OCC(=O)N[C@@H](Cc1ccccc1)[C@H](O)CCc1ccccc1C(=O)NC(C)(C)C` [Example 001206] showed an IC50 of 100 to 10000 nM.

`CC(C)(C)NC(=O)c1ccccc1CC[C@@H](O)[C@H](Cc1ccccc1)NC(=O)c1cc(F)cc(F)c1` [Example 000948] yielded an IC50 above 10000 nM.
